Test results from ChEMBL document CHEMBL5325451, “Structurally Diverse Triterpene-26-oic Acids as Potential Dual ACL and ACC1 Inhibitors from the Vulnerable Conifer Keteleeria fortunei” (J Nat Prod, 2023).

Assays:
[1] = target: T1, ATP-citrate synthase (Homo sapiens, UniProt P53396); assay: Inhibition of ACL (unknown origin)
T1 sequence (P53396 whole entry): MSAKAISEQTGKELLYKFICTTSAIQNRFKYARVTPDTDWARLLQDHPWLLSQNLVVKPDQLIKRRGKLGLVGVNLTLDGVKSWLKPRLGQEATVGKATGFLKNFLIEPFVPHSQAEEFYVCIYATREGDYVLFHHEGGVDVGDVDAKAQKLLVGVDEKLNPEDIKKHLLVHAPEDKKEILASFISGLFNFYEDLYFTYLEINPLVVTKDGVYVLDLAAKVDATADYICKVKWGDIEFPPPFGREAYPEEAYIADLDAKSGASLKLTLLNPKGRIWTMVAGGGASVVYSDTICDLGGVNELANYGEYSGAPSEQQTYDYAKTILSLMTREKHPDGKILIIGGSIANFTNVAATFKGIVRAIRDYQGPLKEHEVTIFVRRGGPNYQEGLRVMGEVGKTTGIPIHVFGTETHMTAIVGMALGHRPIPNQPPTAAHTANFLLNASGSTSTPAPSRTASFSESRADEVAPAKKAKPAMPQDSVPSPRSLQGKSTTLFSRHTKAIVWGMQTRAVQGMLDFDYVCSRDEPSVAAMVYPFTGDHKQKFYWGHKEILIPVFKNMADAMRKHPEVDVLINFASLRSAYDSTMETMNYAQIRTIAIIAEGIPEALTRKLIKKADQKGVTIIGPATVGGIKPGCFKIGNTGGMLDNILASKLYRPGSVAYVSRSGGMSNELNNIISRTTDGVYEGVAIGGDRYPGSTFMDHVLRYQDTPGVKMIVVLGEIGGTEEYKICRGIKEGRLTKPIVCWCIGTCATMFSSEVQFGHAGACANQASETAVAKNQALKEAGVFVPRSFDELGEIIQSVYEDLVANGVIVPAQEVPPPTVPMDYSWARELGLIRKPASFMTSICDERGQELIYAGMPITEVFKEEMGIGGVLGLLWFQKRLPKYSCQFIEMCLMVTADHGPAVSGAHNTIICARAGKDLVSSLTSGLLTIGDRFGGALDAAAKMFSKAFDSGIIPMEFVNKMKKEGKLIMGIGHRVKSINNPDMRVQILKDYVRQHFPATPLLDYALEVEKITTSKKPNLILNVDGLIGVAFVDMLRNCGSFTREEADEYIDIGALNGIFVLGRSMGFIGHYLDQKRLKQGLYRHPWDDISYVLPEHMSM

[2] = target: Acetyl-CoA carboxylase 1 (Homo sapiens, UniProt Q13085); assay: Inhibition of ACC1 (unknown origin) preincubated for 30 mins followed by ATP addition measured for 60 mins by ADP-Glo luminescence assay
[3] = target: T1, ATP-citrate synthase; assay: Inhibition of ACL (unknown origin) incubated for 30 mins in presence of ATP by ADP-Glo kinase assay

Row | SMILES | IC50 [1] [µM] | IC50 [2] [µM] | IC50 [3] [µM]
1 | C[C@H](Cc1cc(C(=O)O)co1)[C@]1(C)CC[C@]2(C)C1=CC[C@@]13C[C@@]14CC[C@@H](O)C(C)(C)[C@@H]4CC[C@H]32 |  | 7.5 | 6.6
2 | C[C@H](CC/C=C(\CO)C(=O)O)[C@H]1CC[C@@]2(C)[C@@H]3CC[C@H]4C(C)(C)[C@H](O)CC[C@@]45C[C@@]35CC[C@]12C |  | 8.4 | 11.4
3 | C/C(=C\CC[C@@H](C)[C@H]1CC[C@@]2(C)[C@@H]3CC[C@H]4C(C)(C)[C@H](O)CC[C@@]45C[C@@]35CC[C@]12C)C(=O)O [ISOMANGIFEROLIC ACID] |  | 10.5 | 7.6

Other lines, results leading:

Row | IC50 [1] [µM] | IC50 [2] [µM] | IC50 [3] [µM] | SMILES
4 | 0.5 |  |  | COc1ccc(-c2ccccc2)cc1NS(=O)(=O)c1cc(Cl)cc(Cl)c1O
5 |  | 10.2 | 5.7 | CC(=O)O[C@@H]1CC[C@]2(C)[C@@H]3CC[C@]4(C)C(=CC[C@@]4(C)[C@H](C)Cc4cc(C(=O)O)co4)C3=CC[C@H]2C1(C)C
6 |  | 8.9 | 8.8 | C[C@H](Cc1cc(C(=O)O)co1)[C@H]1CC[C@@]2(C)C3=CC[C@H]4C(C)(C)[C@H](O)CC[C@]4(C)[C@@H]3CC[C@]12C
